The test system of one data set is rat cardiac muscle. The data set is described as follows: Isometric tension of papillary, atrial and ventricular bundles of cardiac muscle. How it is done: FIG. 2. The papillary muscle, and bundles of atrial and ventricular cells obtained from rat hearts were dissected and set in an aerated chamber to enable recording of isometric tension. LASSBio-294 was added to the chamber in a cumulative manner, first 10 μM and increasing to 50 μM and recordings made after allowing 5 min. for equilibration.
FIG. 3. LASSBio-294 was added to the physiologic solution at increasing concentrations. The isometric tension was expressed as a percent of control, as measured prior to addition of test solution. N=9 for each concentration.
a. The test shown in FIG. 2 measured the effect of LASSBio-294 on the isometric tension of papillary, atrial, and ventricular bundles of rat cardiac muscle. Chart traces are of muscle tension for each muscle group. […] FIG. 3 contains a graphic representation of the effect of LASSBio-294 on isometric tension of papillary, atrial, and ventricular bundles of rat cardiac muscle. LASSBio-294 at concentrations of 0 μM, 25 μM, 50 μM, 100 μM, 200 μM, and 500 μM was used. Isometric tension is expressed as a percent of control that was measured prior to addition of the test solution. […] General Method
The papillary muscle, and bundles of atrial and ventricular cells obtained from rat hearts were dissected and set in an aerated verticle chamber to enable recording of isometric tension. LASSBio-294 was added to the chamber in a cumulative manner. Recordings made after allowing 5 min. for equilibration.

For a further data set, the system named is isolated dog hearts. In words: Intraventricular and aortic pressure in isolated dog hearts under pre-load (Langendorff's method). The conditions noted are these: compared to control or wash out. An excerpt: Predictive tests can also be performed on isolated hearts of animals. Testing intraventricular and arterial pressure in isolated dog hearts, under pre-load, is an animal model for human congestive heart disease, as is well known in the art. This is called Langendorff's method. It allows examination of therapeutic strategies to treat congestive heart disease. When dog hearts were so tested, LASSBio-294 treated hearts achieved a 50% increase in intraventricular and aortic pressure compared to control or wash out after treatment. […] These tests predict that the invention has utility as a medicament in the treatment of congestive heart failure (Curtis, M. J., (1998) Cardiovasc. Res. 39, 194–21, incorporated expressly by reference herein).

Data set [1] can be described thus: Toxicity study: body weight after injection. The conditions noted are these: vs saline and solvent vehicle controls, 1–15 days of treatment. In kind it is in vivo, mice. How it is done:
(§1) b. Rats were weighed before and after treatment with LASSBio 204. […] Six rats were examined in each group, measurements were made after 1–15 days of treatment. […] Mice were injected with LASSBio-294 and their blood examined for cell changes. Experimental groups received 2 or 10 mg/kg of drug. […] Table 4 lists blood chemistry analysis of mice treated with LASSBio-294. Experimental groups received 2 or 10 mg/kg of drug. Controls were saline and solvent. […] The low values of glucose found could be due to an artifact of the technique, glucose being a byproduct of hemolysis. […] General Method

The test system of the next data set is blood cells. In words: Blood cell analysis in treated mice. It counts as in vivo. The conditions noted are these: 2 or 10 mg/kg. On the procedure: as §1
Data set [2] can be described thus: Blood biochemistry analysis in treated mice. It counts as in vivo. How it is done: as §1
A further data set has as its system tissues and organs. The data set is described as follows: Histopathological study of tissues and organs after daily injection. It counts as in vivo, rat. The conditions noted are these: 2 or 10 mg/kg injected daily for more than 14 days.
Data set [3] relates to sarcoplasmic reticulum of cardiac muscle fibers. In words: Caffeine-induced contracture of saponin-treated left ventricular fibers (Ca2+ uptake/storage by sarcoplasmic reticulum). More on the design: species or system Wistar rats. On the procedure: FIG. 7. Bundles of left ventricular fibers were treated with saponin and exposed to 0.5 mM CaCl2 to enable maximal tension development (Po). The contracture initiated by caffeine (20 mM) was measured after treatment of the sarcoplasmic reticulum (SR) with a solution of pCa 6.6 in the absence or presence of LASSBio-294 (100 μM0 for 0.5, 1.0 and 5.0 min. N=6. Calibration: Vertical, 10 mm=20 mg load; Horizontal, 10 mm=40 sec.
FIG. 8. Contracture induced by caffeine in relation to loading of the sarcoplasmic reticulum with a solution of pCa 6.6.
FIG. 9. The contractual responses were obtained during exposure to 20 mM caffeine after loading of the sarcoplasmic reticulum with pCA 6.6 in the absence and the presence of LASSBio-294.
FIG. 11. Concentration-response relationship for contracture induced by caffeine in the presence of 100 μM LASSBio-294. *p<0.01.
b. Graphic representation of the tests in FIG. 7 showing the effect of LASSBio-294 on uptake of Ca^2+ by sarcoplasmic reticulum in isolated cardiac muscle with sarcolemma removed. FIG. 9 illustrates the effect of LASSBio-294 on tension in isolated cardiac muscle with sarcolemma removed was measured. Measurement of contraction induced by caffeine, as a function concentration of LASSBio-294 in bathing solution. FIG. 9 is a graphic representation of the effect of increasing concentrations of LASSBio-294 between 0 and 20 μM. […] FIG. 12 illustrates the effect of LASSBio-294 on sensitivity of cardiac fibers to calcium. Calcium levels can induce isometric twitch. […] FIG. 13 provides a graphic representation of data in FIG. 12. General Method
Bundles of left ventricular muscle (130 μm diameter and 1–2 mm in thickness) from Wistar rats were dissected out and mounted for measurement of isometric tension. The muscles were treated with saponin solution (0.5%) for 5 minutes to […] the permeability of the sarcolemma. The membranes of the SR were then […] with Triton X-100 (1% v/v) with the objective of investigating the effects of LASSBio-294 on the sensitivity of the contractile system Ca^2+. […] Caffeine is used to elicit contraction in muscle. Comparison of caffeine alone to caffeine in the presence of LASSBio-294 was measured.

“Also recorded” adds a separate entry of the source.

Consider `O=C(NN=Cc1cccs1)c1ccc2c(c1)OCO2` [LASSBio-294, 3,4-methylenedioxybenzoyl-2-thienylhydrazone], for which, in the data set on rat cardiac muscle (0, 25, 50, 100, 200, 500 μM, nine tests per concentration), the “isometric tension as percent of control vs concentration” value is recorded as “increased for each concentration up to 200 μM”. In the data set on rat cardiac muscle (papillary, atrial, ventricular bundles, 10 μM and 50 μM cumulative), the isometric tension result was “increase in tension”. Further, in the data set with rat cardiac muscle (ventricular, papillary and atrial bundles, concentrations of up to 200 uM), the “increased tension over control” value is on record as not above 2 fold. Besides, the “increase in intraventricular and aortic pressure” value with isolated dog hearts turned out to be 50%. The body weight result is recorded as “unaffected” in data set [1] and “no change in weight” in data set [1] (listed as LASSBio294). Also, the blood cell values entry in the data set with blood cells was “unaffected; also recorded: no significant change in blood cell values”. Also, the “hematocrit levels, leucocytes and hemoglobin” value in the data set on blood cells is reported as “not significantly changed”. Moreover, the “hemoglobin, erythrocytes and blood biochemistry” value in data set [2] (male and female mice, long-term treatment) is given as “values similar to control”. The blood chemistry values entry in data set [2] (mice, 2 or 10 mg/kg, controls saline and solvent) is “no significant change in blood chemistry values”. For the same compound, the “histopathological changes in tissues and organs” value in the data set with tissues and organs is “unaffected; also recorded: no pathological changes; also recorded: no significant histopathological changes”. The “uptake of Ca^2+ by the sarcoplasmic reticulum” value in data set [3] (100 μM, loading at pCa 6.6, 20 mM caffeine contracture) was “increases uptake of Ca^2+”. Besides, the “response to caffeine as a function of compound concentration” value in data set [3] (20 mM caffeine, concentrations between 0 and 20 μM) was “increases until 10 μM”. Moreover, the “contraction (isometric tension) elicited by caffeine” value in data set [3] (caffeine 0.05 to 10 mM, 100 μM compound vs control) is “increased over control at all concentrations”. Also, in data set [3] (cardiac muscle fibers), the “storage of Ca^2+ by the sarcoplasmic reticulum” value was “increases the storage of Ca^2+”.

These data come from patent publication US7091238B1, “Thienylhydrazon with digitalis-like properties (positive inotropic effects)” (University of Maryland, priority 1999, dated 2006).
